Reference: ChEMBL document CHEMBL4476888, “Tosylacetate based compounds and derivatives thereof as phgdh inhibitors” (2018)

Molecular target: T1, D-3-phosphoglycerate dehydrogenase (Homo sapiens, UniProt O43175)
T1 sequence (O43175 whole entry): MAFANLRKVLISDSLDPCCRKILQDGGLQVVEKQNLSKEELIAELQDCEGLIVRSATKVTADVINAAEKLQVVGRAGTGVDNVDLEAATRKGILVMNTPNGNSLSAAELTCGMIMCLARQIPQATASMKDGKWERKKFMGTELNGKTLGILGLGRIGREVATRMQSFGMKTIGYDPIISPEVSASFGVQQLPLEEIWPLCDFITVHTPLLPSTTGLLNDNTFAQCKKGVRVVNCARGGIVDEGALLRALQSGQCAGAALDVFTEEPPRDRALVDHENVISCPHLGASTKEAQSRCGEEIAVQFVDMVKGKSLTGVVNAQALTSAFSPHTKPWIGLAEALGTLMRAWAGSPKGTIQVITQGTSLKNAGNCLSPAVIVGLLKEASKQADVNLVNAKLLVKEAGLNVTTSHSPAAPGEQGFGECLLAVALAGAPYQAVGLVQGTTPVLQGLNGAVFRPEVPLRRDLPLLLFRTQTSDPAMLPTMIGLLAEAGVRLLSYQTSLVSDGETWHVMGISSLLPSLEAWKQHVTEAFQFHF
Experiment: Inhibition of N-terminal HIS-tagged and TEV cleavage site containing full length PHGDH (unknown origin) expressed in Escherichia coli assessed as reduction in conversion of 3-Phosphoglycerate and NAD to 3-Phosphohydroxypyruvate and NADH using 250 uM NAD and 500 uM 3-PG incubated for 240 mins by fluorescence based assay

SMILES	IC50 [nM]
Cc1cc(Cl)c2cc(C(=O)N[C@H](C)c3ccc(S(=O)(=O)CC(=O)OCCNC(=O)OC(C)(C)C)cc3)n(C)c2c1	701
Cc1cc(Cl)c2cc(C(=O)N[C@H](CO)c3ccc(S(=O)(=O)CC(=O)OCC4(F)COC4)cc3)n(C)c2c1	27
COC(=O)CS(=O)(=O)c1ccc([C@@H](C)NC(=O)c2cc3c(Cl)cc(C)cc3n2C)nc1	1130
Cc1cc2c(cc(C(=O)N[C@@H](C)c3ccc(S(=O)(=O)CC(=O)O)cc3)n2C)c(Cl)c1Cl	155
COCCOC(=O)CS(=O)(=O)c1ccc([C@@H](CO)NC(=O)c2cc3c(Cl)cc(C)cc3n2C)cc1	62
Cc1cc(Cl)c2cc(C(=O)N[C@H](C)c3ccc(S(=O)(=O)C(C)(C)C(=O)OC(C)(C)C)cc3)n(C)c2c1	5050
